Read-outs that look alike come from different tables or passages of the source.
Key:
HLA-A*24:02 = HLA-A*24:02 (Homo sapiens, UniProt P04439, D101N/D140Y/D185E/E176V/E190D/F33S/G103R/G107R/I119L/I121M/I306V/K335N/L105A/L180Q/L300P/N151K/N90K/Q86E/Q94H/R106L/R138H/R89G/T104I/T345S/V100E/W191G/Y123F); experiment: HLA stabilization assay using RMA-S-A2402 cells; type: binding; conditions: RMA-S-A2402 cells
[1] = system: HLA-A*24:02-restricted CD8+ T cells; type: cell-based, human; conditions: for IFN-γ-producing cells among CD8+ T cells (Fig. 1f): bulk T cells
[2] = 14 vaccinated individuals, second time point 11–22 weeks after the first point of analysis

VYSSANNCTF [S-VYF10] was tested, and the “MFI, HLA-A2402 (APC), representative staining” value (HLA-A*24:02; Suppl. Fig. 3b (for Fig. 4a, 4b), peptide(-) 14.8, 26 °C (Maximum) 32.7) was 26.9, the “MFI, HLA-A2402 (APC), representative staining” value (HLA-A*24:02; Suppl. Fig. 3c (for Fig. 4c), peptide(-) 11.7, 26 °C (Maximum) 28.9) was 32.7 and the “number of individuals with specific T cells at both time points” value [1, 2] was “two”. For the same sequence, the “number of individuals with specific T cells at only the first time point” value [1, 2] was “one”, the “IFNg-producing cells among CD8 T cells (%)” value ([1]; Fig.6a, donor U-32, 1.430 weeks since 2nd dose of vaccination) was 0.080% and the “IFNg-producing cells among CD8 T cells (%)” value ([1]; Fig.6a, donor U-32, 15.290 weeks since 2nd dose of vaccination) was 0.000%. For the same sequence, the “IFNg-producing cells among CD8 T cells (%)” value ([1]; Fig.6a, donor V1, 19.000 weeks since 2nd dose of vaccination) was 0.000%, the “IFNg-producing cells among CD8 T cells (%)” value ([1]; Fig.6a, donor V1, 31.710 weeks since 2nd dose of vaccination) was 0.710% and the “IFNg-producing cells among CD8 T cells (%)” value ([1]; Fig.6a, donor V2, 9.570 weeks since 2nd dose of vaccination) was 0.330%. The “IFNg-producing cells among CD8 T cells (%)” value ([1]; Fig.6a, donor V2, 31.570 weeks since 2nd dose of vaccination) was 0.000%, the “IFNg-producing cells among CD8 T cells (%)” value ([1]; Fig.6a, donor V5, 10.570 weeks since 2nd dose of vaccination) was 0.000% and the “IFNg-producing cells among CD8 T cells (%)” value ([1]; Fig.6a, donor V5, 31.710 weeks since 2nd dose of vaccination) was 1.030%. The “IFNg-producing cells among CD8 T cells (%)” value ([1]; Fig.6a, donor V6, 9.570 weeks since 2nd dose of vaccination) was 0.590%, the “IFNg-producing cells among CD8 T cells (%)” value ([1]; Fig.6a, donor V6, 31.000 weeks since 2nd dose of vaccination) was 0.930% and the “IFNg-producing cells among CD8 T cells (%)” value ([1]; Fig.6a, donor V7, 10.140 weeks since 2nd dose of vaccination) was 0.000%. The “IFNg-producing cells among CD8 T cells (%)” value ([1]; Fig.6a, donor V7, 31.140 weeks since 2nd dose of vaccination) was 0.470%, the “IFNg-producing cells among CD8 T cells (%)” value ([1]; Fig.6a, donor V8, 9.860 weeks since 2nd dose of vaccination) was 0.000% and the “IFNg-producing cells among CD8 T cells (%)” value ([1]; Fig.6a, donor V8, 30.140 weeks since 2nd dose of vaccination) was 0.160%. The “IFNg-producing cells among CD8 T cells (%)” value ([1]; Fig.6a, donor V9, 20.570 weeks since 2nd dose of vaccination) was 0.000%, the “IFNg-producing cells among CD8 T cells (%)” value ([1]; Fig.6a, donor V9, 31.570 weeks since 2nd dose of vaccination) was 0.930% and the “IFNg-producing cells among CD8 T cells (%)” value ([1]; Fig.6a, donor V12, 1.000 weeks since 2nd dose of vaccination) was 0.000%. The “IFNg-producing cells among CD8 T cells (%)” value ([1]; Fig.6a, donor V12, 9.290 weeks since 2nd dose of vaccination) was 0.000%, the “IFNg-producing cells among CD8 T cells (%)” value ([1]; Fig.6a, donor V13, 9.000 weeks since 2nd dose of vaccination) was 2.650% and the “IFNg-producing cells among CD8 T cells (%)” value ([1]; Fig.6a, donor V13, 30.290 weeks since 2nd dose of vaccination) was 3.770%. For the same sequence, the “IFNg-producing cells among CD8 T cells (%)” value ([1]; Fig.6a, donor V14, 2.000 weeks since 2nd dose of vaccination) was 1.600%, the “IFNg-producing cells among CD8 T cells (%)” value ([1]; Fig.6a, donor V14, 17.000 weeks since 2nd dose of vaccination) was 1.540% and the “IFNg-producing cells among CD8 T cells (%)” value ([1]; Fig.6a, donor V15, 6.860 weeks since 2nd dose of vaccination) was 0.000%. For the same sequence, the “IFNg-producing cells among CD8 T cells (%)” value ([1]; Fig.6a, donor V15, 25.860 weeks since 2nd dose of vaccination) was 0.380%, the “IFNg-producing cells among CD8 T cells (%)” value ([1]; Fig.6a, donor V16, 8.860 weeks since 2nd dose of vaccination) was 1.180% and the “IFNg-producing cells among CD8 T cells (%)” value ([1]; Fig.6a, donor V16, 22.710 weeks since 2nd dose of vaccination) was 0.000%. The “IFNg-producing cells among CD8 T cells (%)” value ([1]; Fig.6a, donor V17, 4.140 weeks since 2nd dose of vaccination) was 0.000%, the “IFNg-producing cells among CD8 T cells (%)” value ([1]; Fig.6a, donor V17, 18.000 weeks since 2nd dose of vaccination) was 0.000% and the “IFNg-producing cells among CD8 T cells (%)” value ([1]; convalescent donor C2, 45.290 weeks since PCR-confirmed diagnosis, […], peptide-pulsed C1R-A2402) was 1.019%. The “IFNg-producing cells among CD8 T cells (%)” value ([1]; convalescent donor C3, 2.430 weeks since PCR-confirmed diagnosis, […], peptide-pulsed C1R-A2402) was 0.261%, the “IFNg-producing cells among CD8 T cells (%)” value ([1]; convalescent donor C4, 35.000 weeks since PCR-confirmed diagnosis, […], peptide-pulsed C1R-A2402) was 0.317% and the “IFNg-producing cells among CD8 T cells (%)” value ([1]; convalescent donor C5, 41.430 weeks since PCR-confirmed diagnosis, […], peptide-pulsed C1R-A2402) was 0.327%. The “IFNg-producing cells among CD8 T cells (%)” value ([1]; convalescent donor C6, 20.000 weeks since PCR-confirmed diagnosis, […], peptide-pulsed C1R-A2402) was 1.170%, the “IFNg-producing cells among CD8 T cells (%)” value ([1]; convalescent donor C7, 21.710 weeks since PCR-confirmed diagnosis, […], peptide-pulsed C1R-A2402) was 0.230% and the “IFNg-producing cells among CD8 T cells (%)” value ([1]; convalescent donor C8, 47.860 weeks since PCR-confirmed diagnosis, […], peptide-pulsed C1R-A2402) was 0.410%. The “IFNg-producing cells among CD8 T cells (%)” value ([1]; convalescent donor C9, 21.860 weeks since PCR-confirmed diagnosis, […], peptide-pulsed C1R-A2402) was 0.000%, the “IFNg-producing cells among CD8 T cells (%)” value ([1]; convalescent donor C10, 24.570 weeks since PCR-confirmed diagnosis, […], peptide-pulsed C1R-A2402) was 1.220% and the “IFNg-producing cells among CD8 T cells (%)” value ([1]; convalescent donor C11, 24.290 weeks since PCR-confirmed diagnosis, […], peptide-pulsed C1R-A2402) was 0.000%. The “IFN-γ-producing cells among CD8+ T cells (Fig. 1f)” value ([1]; donor V10, 0 weeks since 1st dose of vaccination, C1R-A2402 pre-pulsed with 1 μM peptide) was 1.450%, the “IFN-γ-producing cells among CD8+ T cells (Fig. 1f)” value ([1]; donor V10, 3 weeks since 1st dose of vaccination, C1R-A2402 pre-pulsed with 1 μM peptide) was 0.420% and the “IFN-γ-producing cells among CD8+ T cells (Fig. 1f)” value ([1]; donor V10, 5 weeks since 1st dose of vaccination, C1R-A2402 pre-pulsed with 1 μM peptide) was 0.290%. The “IFN-γ-producing cells among CD8+ T cells (Fig. 1f)” value ([1]; donor V10, 7 weeks since 1st dose of vaccination, C1R-A2402 pre-pulsed with 1 μM peptide) was 0.000%, the “IFN-γ-producing cells among CD8+ T cells (Fig. 1f)” value ([1]; donor V12, 0 weeks since 1st dose of vaccination, C1R-A2402 pre-pulsed with 1 μM peptide) was 0.310% and the “IFN-γ-producing cells among CD8+ T cells (Fig. 1f)” value ([1]; donor V12, 3 weeks since 1st dose of vaccination, C1R-A2402 pre-pulsed with 1 μM peptide) was 0.000%. The “IFN-γ-producing cells among CD8+ T cells (Fig. 1f)” value ([1]; donor V12, 5 weeks since 1st dose of vaccination, C1R-A2402 pre-pulsed with 1 μM peptide) was 0.540%, the “IFN-γ-producing cells among CD8+ T cells (Fig. 1f)” value ([1]; donor V12, 7 weeks since 1st dose of vaccination, C1R-A2402 pre-pulsed with 1 μM peptide) was 0.000% and the “IFN-γ-producing cells among CD8+ T cells (Fig. 1f)” value ([1]; donor V14, 0 weeks since 1st dose of vaccination, C1R-A2402 pre-pulsed with 1 μM peptide) was 0.000%. For the same sequence, the “IFN-γ-producing cells among CD8+ T cells (Fig. 1f)” value ([1]; donor V14, 2 weeks since 1st dose of vaccination, C1R-A2402 pre-pulsed with 1 μM peptide) was 0.000%, the “IFN-γ-producing cells among CD8+ T cells (Fig. 1f)” value ([1]; donor V14, 5 weeks since 1st dose of vaccination, C1R-A2402 pre-pulsed with 1 μM peptide) was 1.580% and the “IFN-γ-producing cells among CD8+ T cells (Fig. 1f)” value ([1]; donor V14, 7 weeks since 1st dose of vaccination, C1R-A2402 pre-pulsed with 1 μM peptide) was 0.000%. The “number of individuals with specific T cells after the second vaccine dose” value ([1]; longitudinal analysis of 3 vaccinated individuals) was “one”, the “Freq of responder (%)” value ([1]; of 17 vaccinated HLA-A*24:02+ individuals (Fig. 4b)) was 23.5% and the “IFNg-producing cells among CD8 T cells (%)” value ([1]; vaccinated donor V1, 19.000 weeks since 2nd dose, […], C1R-A2402 pre-pulsed with 1 μM peptide) was 0%. For the same sequence, the “IFNg-producing cells among CD8 T cells (%)” value ([1]; vaccinated donor V2, 9.570 weeks since 2nd dose, […], C1R-A2402 pre-pulsed with 1 μM peptide) was 0.331%, the “IFNg-producing cells among CD8 T cells (%)” value ([1]; vaccinated donor V3, 8.860 weeks since 2nd dose, […], C1R-A2402 pre-pulsed with 1 μM peptide) was 0.073% and the “IFNg-producing cells among CD8 T cells (%)” value ([1]; vaccinated donor V4, 10.430 weeks since 2nd dose, […], C1R-A2402 pre-pulsed with 1 μM peptide) was 2.41%. The “IFNg-producing cells among CD8 T cells (%)” value ([1]; vaccinated donor V5, 10.570 weeks since 2nd dose, […], C1R-A2402 pre-pulsed with 1 μM peptide) was 0%, the “IFNg-producing cells among CD8 T cells (%)” value ([1]; vaccinated donor V6, 9.570 weeks since 2nd dose, […], C1R-A2402 pre-pulsed with 1 μM peptide) was 0.593% and the “IFNg-producing cells among CD8 T cells (%)” value ([1]; vaccinated donor V7, 10.140 weeks since 2nd dose, […], C1R-A2402 pre-pulsed with 1 μM peptide) was 0%. For the same sequence, the “IFNg-producing cells among CD8 T cells (%)” value ([1]; vaccinated donor V8, 9.860 weeks since 2nd dose, […], C1R-A2402 pre-pulsed with 1 μM peptide) was 0%, the “IFNg-producing cells among CD8 T cells (%)” value ([1]; vaccinated donor V9, 20.570 weeks since 2nd dose, […], C1R-A2402 pre-pulsed with 1 μM peptide) was 0% and the “IFNg-producing cells among CD8 T cells (%)” value ([1]; vaccinated donor V10, 2.000 weeks since 2nd dose, […], C1R-A2402 pre-pulsed with 1 μM peptide) was 0.3%. For the same sequence, the “IFNg-producing cells among CD8 T cells (%)” value ([1]; vaccinated donor V11, 1.430 weeks since 2nd dose, […], C1R-A2402 pre-pulsed with 1 μM peptide) was 0.076%, the “IFNg-producing cells among CD8 T cells (%)” value ([1]; vaccinated donor V12, 1.000 weeks since 2nd dose, […], C1R-A2402 pre-pulsed with 1 μM peptide) was 0% and the “IFNg-producing cells among CD8 T cells (%)” value ([1]; vaccinated donor V13, 9.000 weeks since 2nd dose, […], C1R-A2402 pre-pulsed with 1 μM peptide) was 2.649%. For the same sequence, the “IFNg-producing cells among CD8 T cells (%)” value ([1]; vaccinated donor V14, 2.000 weeks since 2nd dose, […], C1R-A2402 pre-pulsed with 1 μM peptide) was 1.601%, the “IFNg-producing cells among CD8 T cells (%)” value ([1]; vaccinated donor V15, 6.860 weeks since 2nd dose, […], C1R-A2402 pre-pulsed with 1 μM peptide) was 0% and the “IFNg-producing cells among CD8 T cells (%)” value ([1]; vaccinated donor V16, 8.860 weeks since 2nd dose, […], C1R-A2402 pre-pulsed with 1 μM peptide) was 1.178%. The “IFNg-producing cells among CD8 T cells (%)” value ([1]; vaccinated donor V17, 4.140 weeks since 2nd dose, […], C1R-A2402 pre-pulsed with 1 μM peptide) was 0% and the “time after the second vaccine dose for which epitope-specific memory CD8+ T cells were detectable / maintained” value ([1]; vaccinated individuals (8 individuals)) was greater than 30 weeks.

— PMC9447987, “Long-term memory CD8^+ T cells specific for SARS-CoV-2 in individuals who received the BNT162b2 mRNA vaccine” (Nature Communications, 2022)
